Patent US10919894B2, “Adenine derivatives which are useful in the treatment of allergic diseases or other inflammatory conditions” (GlaxoSmithKline Biologicals SA, priority 2014, dated 2021)

Experiments:
human PBMCs = assay: IL-12p70 induction in human PBMCs in combination with CRX601 (TLR4 agonist); type: cell-based; set-up: key to IL-12p70 w/601: * through ****; lowest to highest cytokine induction level; * through ****; lowest to highest cytokine induction level; * through ****; lowest to highest cytokine induction level; * through ****; lowest to highest cytokine induction level; settings: for IL-12p70 w/601: PBMC/Monocytes, in combination with CRX601; for synergy with CRX601 for IL12-p70: human PBMCs, FIGS. 8A and 8B
Procedure: (§1) An additional 10 μl of media was added to these wells, or another compound preparation if co-stimulation was intended.
(§2) Blood samples from human donors were collected into heparinized 60 cc syringes, and divided into 20 ml aliquots in 50 ml conical culture tubes. The whole blood aliquots were then diluted with 15 ml of PBS, and then underlay with 15 ml HISTOPAQUE™. The samples were centrifuged at 800 g for 30 min with no brake and the buffy coat interface carefully removed. The collected cells were centrifuged at 1500 rpm for 5 minutes and the pellet resuspended in 10 ml of PBS. The cells were pooled and further washed twice in PBS to remove all HISTOPAQUE™ from the samples. After the final wash, the combined cells were brought up in 20 ml complete media (RPMI 1640 supplemented with 10% v/v heat-inactivated Fetal Bovine Serum (FBS), 100 U/ml penicillin G, 100 μg/ml streptomycin, 10 mM L-glutamine), counted using a Countess automated cell counter (Invitrogen, Life Technologies) and diluted to give a final concentration of 2.8×10^6/ml. This cell suspension was added to the culture plate containing the compound preparations (see above), at a volume of 180 μl, resulting in a total well volume of 200 µl.
After 24 hr incubation (37° C., 95% air, 5% CO2), the supernatants were carefully removed and assayed for cytokine/chemokine induction using multiplex kits (FLUOROKINE™ multiplex kits from R&D Systems [bio-techne], Minneapolis, Minn.) and human IFNa VERIKINE™ ELISA kit (Pestka Biomedical Laboratories, Inc., Piscataway, N.J.).
As previously observed with other oxoadenines (see WO2010/018134), synergy with AGP CRX601 for IL12-p70 was relatively low compared to imidazoquinoline compound CRX642 (see WO2010/048520; PCT/US2009/061867; U.S. Pat. No. 8,624,029) in combination with CRX601.

hPBMCs [1] = assay: IFNα induction in hPBMCs; type: cell-based; settings: human PBMCs, FIG. 6
Procedure: (§3) Compounds were dissolved in 2% glycerol in water to working concentrations starting at 10 μM, serially diluted to 0.00013 μM with 5-fold dilutions. This compound preparation was added to 96-well flat bottom plates at a volume of 10 μl.
as §1
as §2, with “This cell suspension was added to the culture plate containing the compound preparations (see above), at a volume of 180 μl, resulting in a total well volume of 200 µl.” left out
The induction of IFNα from hPBMCs upon stimulation with oxoadenines 3a-g was also evaluated. […]

PBMC/Monocytes = assay: Inflammatory cytokine induction in PBMC/Monocytes; type: cell-based, human; set-up: key: * through ****; lowest to highest cytokine induction level; * through ****; lowest to highest cytokine induction level; * through ****; lowest to highest cytokine induction level; * through ****; lowest to highest cytokine induction level
Procedure: as §3
as §2, with “µl. […]” for “µl.”

pDC and mDC in hPBMCs = assay: Activation induced apoptosis by Annexin-V staining in pDC and mDC of stimulated hPBMCs; type: cell-based, human; settings: hPBMCs stimulated with various doses
Excerpt: This observed cell type specific apoptosis correlated with the dose-dependent IFNα and TNFα induction curves.

hTLR7 = target: T1, hTLR7 (Homo sapiens, UniProt Q9NYK1); assay: NF-κB SEAP reporter gene assay in HEK293 cells stably transfected with hTLR7; type: cell-based; settings: for EC50: HEK 293, 24 h stimulation, NF-κB SEAP, read-out: TLR7 ED50; for higher TLR7 potency in relation to oxoadenine 3b: HEK293-hTLR7, FIG. 4A
T1 construct: host or cells: HEK293 cells stably transfected with hTLR7 and NF-κB SEAP reporter
T1 sequence (Q9NYK1 27-1049): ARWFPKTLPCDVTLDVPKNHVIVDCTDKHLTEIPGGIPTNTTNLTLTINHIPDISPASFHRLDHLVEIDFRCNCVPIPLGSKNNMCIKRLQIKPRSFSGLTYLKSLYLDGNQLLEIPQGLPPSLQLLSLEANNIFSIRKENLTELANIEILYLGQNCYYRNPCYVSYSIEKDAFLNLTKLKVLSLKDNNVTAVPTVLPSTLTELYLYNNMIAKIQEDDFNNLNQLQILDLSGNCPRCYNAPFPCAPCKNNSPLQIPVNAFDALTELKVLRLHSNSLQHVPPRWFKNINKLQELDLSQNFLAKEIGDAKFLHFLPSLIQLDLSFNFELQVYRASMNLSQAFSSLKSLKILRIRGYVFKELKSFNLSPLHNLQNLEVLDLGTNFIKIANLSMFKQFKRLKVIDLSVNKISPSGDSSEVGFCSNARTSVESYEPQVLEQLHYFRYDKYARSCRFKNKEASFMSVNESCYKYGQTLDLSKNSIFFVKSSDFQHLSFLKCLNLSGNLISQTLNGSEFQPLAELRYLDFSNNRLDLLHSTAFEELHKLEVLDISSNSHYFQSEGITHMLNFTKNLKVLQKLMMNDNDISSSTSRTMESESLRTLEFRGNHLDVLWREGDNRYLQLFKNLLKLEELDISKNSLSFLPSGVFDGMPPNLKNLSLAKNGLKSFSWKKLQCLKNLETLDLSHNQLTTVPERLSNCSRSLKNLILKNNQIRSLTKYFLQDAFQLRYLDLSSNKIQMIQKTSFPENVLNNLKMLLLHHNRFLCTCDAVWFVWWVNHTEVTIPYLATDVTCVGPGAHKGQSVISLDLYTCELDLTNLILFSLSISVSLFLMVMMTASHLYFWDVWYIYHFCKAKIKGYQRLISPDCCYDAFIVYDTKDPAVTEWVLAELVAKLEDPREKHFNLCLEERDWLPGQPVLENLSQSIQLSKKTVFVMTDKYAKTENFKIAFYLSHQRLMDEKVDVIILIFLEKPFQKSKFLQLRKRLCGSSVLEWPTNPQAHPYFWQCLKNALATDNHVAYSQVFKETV
Procedure: The human (h) TLR7/8 activity of oxoadenines 3a-g was assessed by a reporter gene assay using HEK293 cells stably transfected with either hTLR7 or hTLR8, and with the NF-κB SEAP (secreted embryonic alkaline phosphatase) reporter.
HEK293 cells expressing human TLR7 or TLR8, and NF-κB responsive SEAP reporter gene, were obtained from InvivoGen (San Diego, Calif.). These cells were maintained in culture media of Dulbecco's Modified Eagle Medium (DMEM)
(Invitrogen, Grand Island, N.Y.), 10% Fetal Bovine Serum (FBS) (Sigma, St. Louis, Mo.) and selection antibiotics (Invitrogen and InvivoGen). The stably transfected HEK293 cells were plated in 96-well flat bottom culture plates at 1^E5/well and stimulated for 24 h with a dose range of aqueous formulations of compounds starting at 200 μM, serially diluted to 0.012 μM with 2-fold dilutions (unless formulation conditions warranted lower starting concentrations). Culture supernatants were harvested and assayed for NFKB activation using the colorimetric SEAP detection kit QU ANTI-BLUE (a trademark of InvivoGen).
The assay measured NFKB mediated SEAP production following TLR7 or TLR8 specific activation.
It should be noted that the HEK assay is not optimal for evaluating TLR7 since TLR7 signals via both the NFKB (leading to induction of inflammatory cytokines) and IRF7 pathways (leading to IFN induction) and the HEK system only measures the NFKB side of TLR7 signaling. Oxoadenine 3a was not active on hTLR7 or hTLR8 but the other oxoadenines 3b-g were all active.

hPBMCs [2] = assay: TNFα induction in hPBMCs; type: cell-based, human; settings: 24 hours stimulation
Procedure: as §3, §1
as §2, with “The cells were pooled and further washed twice in PBS to remove all HISTOPAQUE™ from the samples.” left out, “This cell suspension was added to the culture plate containing the compound preparations (see above), at a volume of 180 μl, resulting in a total well volume of 200 µl.” left out
The induction of cytokines in human peripheral blood mononuclear cells (hPBMCs) after 24 hours stimulation with oxoadenines 3e-g was next evaluated using cytokine ELISA and intracellular cytokine staining (ICS). […]

| SMILES | IL-12p70 w/601 (human PBMCs) | synergy with CRX601 for IL12-p70 (human PBMCs) | dose at which IFN-alpha is induced (hPBMCs [1]) | Infl. Cytok. (PBMC/Monocytes) | Annexin-V staining in mDC (pDC and mDC in hPBMCs; mDC) | Annexin-V staining in pDC (pDC and mDC in hPBMCs; pDC) | EC50 (hTLR7) | higher TLR7 potency in relation to oxoadenine 3b (hTLR7) | TNFα induction in hPBMCs (in words) (hPBMCs [2]) |
| --- | --- | --- | --- | --- | --- | --- | --- | --- | --- |
| CCCCOc1nc(N)c2[nH]c(=O)n(CCCCCC3CCNCC3)c2n1 [Compound 3f] | ** | demonstrated synergy with CRX601 throughout a wide dose range | ~1 nM | *** | not in mDC | dose dependent increase in Annexin-V staining | 26 nM | 50 fold | high potency |
| CCC[C@H](C)Oc1nc(N)c2nc(O)n(CCCCCC3CCNCC3)c2n1 [Compound 3x] | ** | demonstrated synergy with CRX601 throughout a wide dose range | ~1 nM | – | – | – | 6 nM | 100 fold | high potency |
